Patent US5776673A, “Treatment and detection of tuberculosis, leprosy, and related diseases” (priority 1995, dated 1998)

Experiments:
[1] = molecular target: T1, T7 DNA polymerase Y526F (Escherichia phage T7, UniProt P00581, DEL118-145/Y526F); settings: 10 μM 4 dNTPs, ddNTP 100 to 2,000 μM; factor versus T7 DNA polymerase multiplied by its absolute ratio
[2] = molecular target: T2, E. coli DNA polymerase I (Escherichia coli, UniProt P00582); assay: Competition of dATP and ddATP at a single site in synthetic Primer-Template A (Example 4); type: biochemical; parameters: The large fragment of E. coli DNA polymerase I, commonly called the Klenow fragment; settings: 10 μM dATP; read-out: [ddATP] for 50% inhibition
Description: (§1) Example 4. Determination of the efficiency of incorporation of dideoxynucleotides by measuring the incorporation of [α-^32 P]dAMP into synthetic primer-template complexes
(§2) In this example the competition between a dNTP and a ddNTP is assayed for use at a single site in a synthetic primer-template. This assay differs from the others in that it limits the comparison of the use of the two substrates to a single site, avoiding the complication of sequence-specific variability in discrimination. […]
(§3) Each reaction mixture contains 25 pmoles each of primer and template. […] The mixtures are incubated at 37° C. for 1 min (70° C. for thermophilic DNA polymerases), and the reactions are initiated by the addition of 5 μl aliquots (0.01 to 1 unit) of the DNA polymerase being analyzed diluted in 20 mM Tris.HCl, pH 7.5, 10 mM 2-mercaptoethanol and 0.05% bovine serum albumin. […] The disks are then dried under a heat lamp and counted in a scintillation counter in 5 ml of fluor (Opti-Fluor O, Packard). From the amount of radioactivity on each disk, the amount [^32 P]dGMP incorporated was determined. […]
(§4) All reactions are carried out with a constant amount of the DNA polymerase being analyzed; the amount of DNA polymerase should be sufficient to replicate 50% of the total […] residues in the single-stranded region of the template in the 10 min incubation in the presence of 10 μM DATP and the absence of ddATP. […]

[3] = molecular target: T3, Taq DNA polymerase (Thermus aquaticus, UniProt P19821); settings: 10 μM 4 dNTPs, ddNTP 100 to 2,000 μM; factor versus F667Y multiplied by its absolute ratio
[4] = molecular target: T4, T7 DNA polymerase (Escherichia phage T7, UniProt P00581, DEL118-145); type: biochemical, Bacteriophage T7; settings: for percentage of counts in the first three dideoxy-terminated fragments to the total number of counts in the primers capable of being extended: 100 μM 4dNTPs and 100 μM of one ddNTP; for M, calculated exponential decay function: 1:1 dNTP:ddNTP, fit Y=e^M*X; for Incorporation Rate Ratios dN/ddN: absolute ratios from 1:1 dNTP:ddNTP test; for D, discrimination factor, ratio of use of dNTP to comparable ddNTP: equal concentrations, D=Y/(1-Y) at X=1
Description: (§5) Reaction conditions are used that are optimum for the DNA polymerase being tested with regard to buffer, pH, salts, and temperature of the reaction. A concentration of DNA polymerase is chosen whereby most of the primers are extended in a 10 min reaction and are terminated by the incorporation of a dideoxynucleotide. The reaction mixture contains 100 μM 4dNTPs and 100 μM of one of the four ddNTPs.
(§6) We used this test to compare the ability of six DNA polymerases to incorporate each of the four ddNMPs.
(§7) The reaction mixtures also contained 10 ng of yeast inorganic pyrophosphatase to inhibit pyrophosphorolysis that could otherwise increase the apparent discrimination by the DNA polymerase (Tabor and Richardson 265 J. Biol. Chem. 8322, 1990). The reactions were initiated by the addition of 2 μl of each DNA polymerase, diluted in 20 mM Tris.HCl, pH 7.5, 10 mM 2-mercaptoethanol and 0.05% bovine serum albumin to a concentration of approximately 0.025 units/μl. […] The reactions were terminated by the addition of 10 μl 90% formamide, 20 mM EDTA, 0.05% bromphenol blue. Each sample was heated at 90° C. for 2 min immediately prior to loading 6 μl of each sample onto a gel consisting of 8% polyacrylamide, 0.4% N,N'-methylenebisacrylamide, 7M urea in 100 mM Tris borate, pH 8.3, 1 mM EDTA. Electrophoresis was at 2000 Volts for 90 min (until the bromphenol blue had just run off the bottom of the gel). After electrophoresis, the gel was dried under vacuum, and autoradiographed. After autoradiography, the distribution of radioactively labeled fragments was determined by Phosphorimager analysis (Molecular Dynamics). Alternatively, the relative intensities of dideoxy-terminated bands can be determined by scanning the autoradiograph using an instrument such as the SciScan 5000 imaging densitometer (United States Biochemical Corp).
(§8) The distribution of radioactivity in the fragments was quantitated by Phosphoimager analysis (Molecular Dynamics). The total amount of labeled primers in each lane was determined by running three control reactions in which no DNA polymerase was present, and the radioactivity in each of the corresponding radioactive bands on the gel at the position of the unextended primer was determined. […] This value is defined as the total number of counts in primers that are capable of being extended by a DNA polymerase.
(§9) The values are presented in the Table below as the percentage of counts in the first three dideoxy-terminated fragments to the total number of counts in the primers capable of being extended by a DNA polymerase.
(§10) As a further test of the efficiency of each DNA polymerase to incorporate dideoxynucleotides, the number of counts in each fragment with a significant signal was determined for each reaction, and the data were plotted as a function of the fragment number using the Macintosh program Kaleidograph Version 3.0 (Synergy Software). The resulting plots were fit to an exponential decay curve using the Kaleidograph library routine for this function. The decay curve is given by the equation: […]

[5] = molecular target: T5, Taq DNA polymerase F667Y (Thermus aquaticus, UniProt P19821, F667Y); assay: Competition of dATP and ddATP at a single site in synthetic Primer-Template A (Example 4); type: biochemical; settings: 10 μM dATP; read-out: [ddATP] for 50% inhibition
Description: as §1, §2, §3, §4

[6] = molecular target: T3, Taq DNA polymerase; assay: as above; type: biochemical; settings: 10 μM dATP; read-out: [ddATP] for 50% inhibition
Description: as §1, §2, §3, §4

[7] = molecular target: T2, E. coli DNA polymerase I; settings: 10 μM 4 dNTPs, ddNTP 100 to 2,000 μM; factor versus F762Y multiplied by its absolute ratio
[8] = molecular target: T4, T7 DNA polymerase; assay: Competition of dATP and ddATP at a single site in synthetic Primer-Template A (Example 4); type: biochemical, Bacteriophage T7; settings: 10 μM dATP; read-out: [ddATP] for 50% inhibition
Description: as §1, §2, §3, §4

[9] = molecular target: T1, T7 DNA polymerase Y526F; assay: as above; type: biochemical, Bacteriophage T7; settings: 10 μM dATP; read-out: [ddATP] for 50% inhibition
Description: as §1, §2, §3, §4

[10] = molecular target: T5, Taq DNA polymerase F667Y; type: biochemical; settings: for M, calculated exponential decay function: 1:1 dNTP:ddNTP, fit Y=e^M*X; for Incorporation Rate Ratios dN/ddN: absolute ratios from 1:1 dNTP:ddNTP test; for D, discrimination factor, ratio of use of dNTP to comparable ddNTP: equal concentrations, D=Y/(1-Y) at X=1
Description: as §5, §6, §7, §8, §9, §10

## Nc1ncnc2c1ncn2[C@H]1CC[C@@H](COP(=O)(O)OP(=O)(O)OP(=O)(O)O)O1 [ddATP]
[1]
  Incorporation Rate Ratios dN/ddN: 7,300
[2]
  IC50: > 500 µM
[3]
  Incorporation Rate Ratios dN/ddN: 4,700
[4]
  percentage of counts in the first three dideoxy-terminated fragments to the total number of counts in the primers capable of being extended: 66%
  M, calculated exponential decay function: -0.356
  Incorporation Rate Ratios dN/ddN: 3.3
  D, discrimination factor, ratio of use of dNTP to comparable ddNTP: 2.3
[5]
  IC50: ~5 µM
[6]
  IC50: > 500 µM
[7]
  Incorporation Rate Ratios dN/ddN: 720
[8]
  IC50: ~30 µM
[9]
  IC50: > 500 µM
[10]
  M, calculated exponential decay function: -0.997
  Incorporation Rate Ratios dN/ddN: 0.59
  D, discrimination factor, ratio of use of dNTP to comparable ddNTP: 0.59

## Cc1cn([C@H]2CC[C@@H](COP(=O)(O)OP(=O)(O)OP(=O)(O)O)O2)c(=O)[nH]c1=O [ddTTP]
[1]
  Incorporation Rate Ratios dN/ddN: 8,400
[3]
  Incorporation Rate Ratios dN/ddN: 4,500
[4]
  percentage of counts in the first three dideoxy-terminated fragments to the total number of counts in the primers capable of being extended: 76%
  M, calculated exponential decay function: -0.450
  Incorporation Rate Ratios dN/ddN: 2.8
  D, discrimination factor, ratio of use of dNTP to comparable ddNTP: 1.8
[7]
  Incorporation Rate Ratios dN/ddN: 1,100
[10]
  M, calculated exponential decay function: -1.01
  Incorporation Rate Ratios dN/ddN: 0.56
  D, discrimination factor, ratio of use of dNTP to comparable ddNTP: 0.56

## Nc1ccn([C@H]2CC[C@@H](COP(=O)(O)OP(=O)(O)OP(=O)(O)O)O2)c(=O)n1 [ddCTP]
[1]
  Incorporation Rate Ratios dN/ddN: 11,000
[3]
  Incorporation Rate Ratios dN/ddN: 2,600
[4]
  percentage of counts in the first three dideoxy-terminated fragments to the total number of counts in the primers capable of being extended: 61%
  M, calculated exponential decay function: -0.317
  Incorporation Rate Ratios dN/ddN: 3.7
  D, discrimination factor, ratio of use of dNTP to comparable ddNTP: 2.7
[7]
  Incorporation Rate Ratios dN/ddN: 250
[10]
  M, calculated exponential decay function: -1.44
  Incorporation Rate Ratios dN/ddN: 0.32
  D, discrimination factor, ratio of use of dNTP to comparable ddNTP: 0.32

## Nc1nc2c(ncn2[C@H]2CC[C@@H](COP(=O)(O)OP(=O)(O)OP(=O)(O)O)O2)c(=O)[nH]1 [ddGTP]
[1]
  Incorporation Rate Ratios dN/ddN: 6,400
[3]
  Incorporation Rate Ratios dN/ddN: 1,400
[4]
  percentage of counts in the first three dideoxy-terminated fragments to the total number of counts in the primers capable of being extended: 67%
  M, calculated exponential decay function: -0.375
  Incorporation Rate Ratios dN/ddN: 3.2
  D, discrimination factor, ratio of use of dNTP to comparable ddNTP: 2.2
[7]
  Incorporation Rate Ratios dN/ddN: 140
[10]
  M, calculated exponential decay function: -1.18
  Incorporation Rate Ratios dN/ddN: 0.45
  D, discrimination factor, ratio of use of dNTP to comparable ddNTP: 0.45
